Measured values published in patent US20090117083A1, “IMMUNOMODULATORY ALKALOIDS” (M N L PHARMA LIMITED, priority 2004, published 2009).

Key:
dendritic cells = assay: Induction of IL-12 secretion in dendritic cells (ELISA); type: cell-based, BALB/c mice; settings: casuarine alone, absence of LPS; 1 μg/ml versus 40 μg/ml
α-D-glucosidase [1] = target: T1, α-D-glucosidase (Saccharomyces cerevisiae, UniProt P53341); assay: Glycosidase inhibition (p-nitrophenyl substrate): α-D-glucosidase, yeast; type: biochemical, Saccharomyces cerevisiae (Baker's yeast)
T1 construct: purchased Sigma
Experimental: All enzymes were purchased from Sigma, as were the appropriate p-nitrophenyl substrates. Assays were carried out in microtitre plates. Enzymes were assayed in 0.1M citric acid/0.2M di-sodium hydrogen phosphate (McIlvaine) buffers at the optimum pH for the enzyme. All assays were carried out at 20° C. For screening assays the incubation assay consisted of 10 μl of enzyme solution, 10 μl of inhibitor solution (made up in water) and 50 μl of the appropriate 5 mM p-nitrophenyl substrate (3.57 mM final conc.) made up in McIlvaine buffer at the optimum pH for the enzyme.
The reactions were stopped with 0.4M glycine (pH 10.4) during the exponential phase of the reaction, which was determined at the beginning of the assay using blanks with water, which were incubated for a range of time periods to measure the reaction rate using 5 mM substrate solution. Endpoint absorbances were read at 405 nm with a Biorad microtitre plate reader (Benchmark). Water was substituted for the inhibitors in the blanks.

α-D-glucosidase [2] = target: T2, α-D-glucosidase (Oryza sativa subsp. japonica, UniProt Q653V7); assay: Glycosidase inhibition: α-D-glucosidase, rice; type: biochemical, rice (Oryza sativa); settings: 1 mg/ml; read-out: % inhibition, gluc (rice)
T2 construct: purchased Sigma
Outline: (§1)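 Absorbance at 405 nm of released p-nitrophenol gives activity after a glycine pH 10.4 stop timed to the exponential phase. Incubations run at 20° C in citrate/phosphate buffer at optimum pH with 3.57 mM final p-nitrophenyl substrate.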

α-D-glucosidase [3] = assay: Glycosidase inhibition: α-D-glucosidase, Bacillus; type: biochemical, Bacillus stearothermophilus; settings: 1 mg/ml
Outline: as §1

β-D-glucosidase = assay: Glycosidase inhibition: β-D-glucosidase, almond; type: biochemical, Almonds (Prunus sp.)
Outline: as §1

Naringinase = assay: Glycosidase inhibition: Naringinase; type: biochemical, Penecillium decumbens; settings: 1 mg/ml
Outline: as §1

[4] = test system: N-acetyl-β-D-glucosaminidase; assay: Glycosidase inhibition: N-acetyl-β-D-glucosaminidase; type: biochemical, Bovine; settings: 1 mg/ml
Outline: as §1

B16-F10 tumour cells = assay: Control of lung metastasis in mice (B16-F10); type: in vivo, C57/bl6 mice; settings: 50 mg/kg s/c on days 2 and 4; lungs on day 14
Experimental: Mice (C57/bl6 under i/p ketamine anaesthesia) were challenged i/v (tail vein) with 5×10^4 B16-F10 tumour cells in a final volume of 100 μl per mouse on day 0. Test compounds (50 mg/kg in 200 μl sterile non-pyrogenic saline) were administered sic (right flank) on days 2 and 4. On day 14 the mice were sacrifices and the lungs dissected and stained in Indian ink solution (150 ml bidistilled water, 30 ml India Ink, 4 drops NH4OH) for 10 minutes then fixed for at least 24 hr in Fakete's solution (90 ml 37% formaldehyde, 900 ml 70% EtOH and 45 ml glacial acetic acid). The metastases in the stained and fixed lungs could then be visualized, counted and photographed.

B16G/F10 melanoma cells = assay: B16/F10 melanoma lung colonies in mice; type: in vivo, C57BL/6 mice; settings: for Colony Count: Day 21, mean ± s.e.m.; for % Reduction: versus vehicle
Experimental: There were 5 treatment groups in the study, with 6 mice arbitrarily allocated to each group. The treatment groups were as follows:
The dose volume was the daily intake for all animals. Test substances were administered to mice in Groups 2, 3, 4 and 5, as solutions in sterile water for 41 h 32 min prior to tumour cell injection (Day 0 is the day of tumour cell injection).
Mice were injected intravenously, via a tail vein, with 0.1 ml of a suspension of B16G/F10 melanoma cells (approximately 1×10^5 cells/mouse) on Day 0.
All dosing solutions were prepared on the first day of dosing (Day −2) and were kept at room temperature.
Mice: Female C57BL/6 mice were supplied and delivered by Charles River UK Limited. The animals were approximately 6-8 weeks of age on arrival. The animals were acclimatized for 29 days prior to the start of the study, and the body weights at the start of dosing were in the range 18-23 g. During the study, the animals were housed in groups of up to 6 in pediatric filter-topped cages with sawdust bedding (autoclaved for sterility). The room and cages were cleaned at regular intervals each week to maintain hygiene. The mice were fed an expanded rodent diet of RM1(E) SQC (batch number 3822; Special Diets Services, Witham, UK) ad libitum and allowed access to sterilized water (N.V. Nutricia, Zoetermeer, The Netherlands). For Groups 2, 3, 4 and 5, the drinking water also contained the appropriate level of test substance for the duration of the dosing period. […] During the acclimatization and study period the temperature range in the rooms was 18-22° C. and the humidity range was 44-79%.
Tumour challenge: B18F10 murine tumour cells (Shrayer D, Bogaars H. Hearing V. J. Maizel A. & Wanebo H. Further characterization of a clinically relevant model of melanoma metastasis and an effective vaccine. Cancer Immunology, Immunotherapy 1995: 40; 277-282) were harvested from sub-confluent cultures growing in vitro, using minimum trypsination. They were washed in sterile phosphate buffered saline (PBS) and the number of viable cells determined. Cells were resuspended in sterile PBS at a concentration of […]. The mice were intravenously injected, via a tail vein, with 0.1 ml of cell suspension (i.e. approximately 1×10^5 cells/mouse) on Day 0. The mice were examined daily for signs of laboured breathing or distress due to extensive metastatic disease. Mice were exposed to the appropriate test substance for 41 h 32 min prior to tumour cell injection (from Day −2 to Day 0). Following tumour cell implant, the test substances were removed, and animals in all groups received drinking water alone for the remainder of the study.
Sampling and analysis: The animals were terminated on Day 21 (21 days after injection of the tumour cells). Blood samples were taken from 3 mice from each group on the day of termination. Animals were anaesthetized with carbon dioxide and blood samples of maximal volume taken by cardiac puncture and collected in plain tubes. Samples were left to clot at room temperature for a minimum of 1 h prior to serum removal, Serum samples were stored at approximately −70° C. prior to analysis. Immediately after performing the bleeds, the spleens were removed from the 3 selected mice. The spleens from these mice were pooled in a petri dish with approximately 3-5 ml of RPMI 1640 tissue culture medium (batch number 3092202; Invitrogen, Paisley, UK) containing 0.52% penicillin/streptomycin (Pen/Strep; batch number 44K2412; Sigma Aldrich, Poole, UK) prior to splenocyte isolation. The spleens from each group were placed in a glass homogeniser with an additional 10-15 ml of medium and homogenised until opaque. The suspension was then placed in a 50 ml centrifuge tube. On occasions when there was significant cell debris, this was allowed to settle before removing the suspension and placing in a fresh tube. The homogenate was then centrifuged at approximately 200×‘g’ for 5 min at approximately 4° C.

T1 sequence (P53341 whole entry): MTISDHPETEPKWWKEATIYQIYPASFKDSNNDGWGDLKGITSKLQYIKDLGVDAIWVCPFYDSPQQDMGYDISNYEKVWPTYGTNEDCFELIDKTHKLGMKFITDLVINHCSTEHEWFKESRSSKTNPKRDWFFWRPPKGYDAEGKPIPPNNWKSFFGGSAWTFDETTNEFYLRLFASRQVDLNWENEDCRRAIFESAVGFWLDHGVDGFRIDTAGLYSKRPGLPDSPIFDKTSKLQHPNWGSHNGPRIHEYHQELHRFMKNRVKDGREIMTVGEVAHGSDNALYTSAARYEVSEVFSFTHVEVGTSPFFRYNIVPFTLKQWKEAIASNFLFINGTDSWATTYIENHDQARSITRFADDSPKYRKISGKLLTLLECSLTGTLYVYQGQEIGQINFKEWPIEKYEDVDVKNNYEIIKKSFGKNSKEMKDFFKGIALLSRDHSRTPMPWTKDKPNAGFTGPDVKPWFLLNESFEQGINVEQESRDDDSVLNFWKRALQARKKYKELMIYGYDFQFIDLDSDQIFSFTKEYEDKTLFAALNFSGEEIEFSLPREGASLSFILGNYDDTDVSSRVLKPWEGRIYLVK
T2 sequence (Q653V7 34-885): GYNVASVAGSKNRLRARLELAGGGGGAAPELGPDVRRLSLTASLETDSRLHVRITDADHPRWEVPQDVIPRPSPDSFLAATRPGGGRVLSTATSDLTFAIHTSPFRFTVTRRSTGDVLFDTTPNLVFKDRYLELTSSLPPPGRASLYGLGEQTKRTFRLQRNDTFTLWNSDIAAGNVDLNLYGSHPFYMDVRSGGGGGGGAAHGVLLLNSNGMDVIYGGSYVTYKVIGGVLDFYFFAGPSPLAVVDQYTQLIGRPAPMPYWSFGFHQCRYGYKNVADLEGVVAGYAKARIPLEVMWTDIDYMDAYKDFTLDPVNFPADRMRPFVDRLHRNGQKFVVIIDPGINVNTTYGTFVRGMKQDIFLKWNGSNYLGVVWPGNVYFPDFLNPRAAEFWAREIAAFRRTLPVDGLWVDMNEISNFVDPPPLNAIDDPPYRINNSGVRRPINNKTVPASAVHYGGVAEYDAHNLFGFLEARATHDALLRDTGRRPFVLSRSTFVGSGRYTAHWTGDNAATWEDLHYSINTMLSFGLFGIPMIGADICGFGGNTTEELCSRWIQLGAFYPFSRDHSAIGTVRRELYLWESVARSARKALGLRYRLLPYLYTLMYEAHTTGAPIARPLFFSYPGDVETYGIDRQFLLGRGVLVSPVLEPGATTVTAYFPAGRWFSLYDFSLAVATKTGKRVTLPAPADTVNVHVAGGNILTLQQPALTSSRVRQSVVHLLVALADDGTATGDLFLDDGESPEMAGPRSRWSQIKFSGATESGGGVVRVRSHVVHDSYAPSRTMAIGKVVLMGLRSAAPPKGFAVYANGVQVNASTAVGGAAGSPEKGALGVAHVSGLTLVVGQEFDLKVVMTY

OC[C@@H]1[C@@H](O)[C@H](O)[C@H]2[C@H](O)[C@@H](O)CN21 [casuarine (8)]
induction of IL-12 secretion, dose response (dendritic cells): higher at low doses than high | Ki (α-D-glucosidase [1]): 217 µM | inhibition at 1000 µg/mL (α-D-glucosidase [1]; 1 mg/ml, read-out: % inhibition, gluc (yeast)): 64% | inhibition at 1000 µg/mL (α-D-glucosidase [2]): 76% | % inhibition, gluc (Bacillus) (α-D-glucosidase [3]): 86% | inhibition of almond β-D-glucosidase (β-D-glucosidase; 800 μM): not being inhibitory | % inhibition, glucosidase (β-D-glucosidase; 1 mg/ml): 0% | % inhibition, Naringinase (Naringinase): −2% | % inhibition, N-acetyl-β-gluc [4]: 14% | Metastatic morphology (B16-F10 tumour cells): Metastasis restricted to apical tip of lung | Colony Count (B16G/F10 melanoma cells; 0.03 μg/ml in drinking water before tumour cell injection): 17.00 ± 6.97 | % Reduction (B16G/F10 melanoma cells; 0.03 μg/ml in drinking water): 76% | Colony Count (B16G/F10 melanoma cells; 3 μg/ml in drinking water before tumour cell injection): 35.40 ± 7.47 | % Reduction (B16G/F10 melanoma cells; 3 μg/ml in drinking water): 49% | Colony Count (B16G/F10 melanoma cells; 0.3 mg/ml in drinking water before tumour cell injection): 38.50 ± 11.49 | % Reduction (B16G/F10 melanoma cells; 0.3 mg/ml in drinking water): 45%
